Test results from patent publication US10253085B2, “CD31 peptides for the treatment of thrombotic or autoimmune disorders” (INSERM (INSTITUT NATIONAL DE LA SANTE ET DE LA RECHERCHE …, priority 2008, dated 2019).
Residues, ends and D or L forms follow the SMILES beside them.

What was measured:
[1] = test system: Spleen cells from C57Bl/6 mice; test: Calcium mobilisation assay in Fluo-3AM-loaded spleen cells; assay type: cell-based, mouse; settings: anti-CD3/CD28, peptide 100 μM; compared with anti-CD31 antibody cross-linking
Protocol: Spleen cells from C57Bl/6 mice were prepared as described in Caligiuri et al. (2005 Arterioscler Thromb Vasc Biol 25:1659-1664). Cells were incubated with Fluo-3AM (Invitrogen, # F1242) as per the instructions of the manufacturer. Fluorescence of calcium-bound tracer was measured in the FITC channel on an LSRII® cytometer (BD Biosciences) prior to and during 60 seconds following the addition of hamster anti-mouse CD3/CD28 monoclonal antibodies (40 μg/ml each) and rat/hamster compBead® (1:50) either alone or in the presence of rat anti-mouse CD31 antibody (clone 390, 10 μg/ml) or in the presence of CD31 peptide 551-574 (100 μM). Negative controls included rat IgG isotype control and scramble peptide. Antibodies and compBeads® were from BD Biosciences.

[2] = test system: CD4+ cells from C57Bl6 mice; test: CD4+ T cell activation, early activation marker CD69 by flow cytometry; assay type: cell-based, mouse; settings: 18 hours culture
Protocol: Alternatively, the T-cell proliferation assay may comprise comparing expression levels of the early activation marker CD69 in T-cells cultured either in the presence or in the absence of the compound to be tested. This assay may for example be performed as follows: • providing purified CD4+ cells (e.g. purified from C57B16 mice); • stimulating said CD4+ cells by addition of anti-CD3 purified antibodies and bone marrow derived dendritic cells; • culturing the cells for about 18 hours; and • analyzing said cells for the expression of the early activation marker CD69, e.g. by flow cytometry; and • comparing CD69 expression in the presence of the compound to be tested.
The immunosuppressive properties of PepReg (10aa) vs the 23 aa parent peptide were evaluated in vitro. Negatively purified CD4+ cells from C57Bl6 mice were stimulated by soluble anti-CD3 purified antibodies and bone marrow derived dendritic cells. Cells from triplicate wells were analyzed for the expression of the early activation marker CD69 after 18 hours culture in complete RPMI medium supplemented with 10% fetal calf serum.

[3] = test system: spleen cells from C57Bl/6 (CD31^+/+) mice; test: Proliferation in response to TCR stimulation, CD31+/+ spleen cells; assay type: cell-based, mouse; settings: peptide 25, 50, 100 μM, scramble peptide 100 μM
Protocol: CD8^+ T cell-mediated cytolytic activity against allogeneic mouse aortic smooth muscle cells and measurement of macrophage gelatinase (MMP-2/9) activity were performed as previously described for human cells in Caligiuri et al. (2006 Arterioscler Thromb Vasc Biol 26:618-623) using kits and reagents from Invitrogen. Briefly, primary cultures of FVB/N mouse aorta smooth muscle cells were labelled with the lipophylic tracer DIO (green) and co-cultured for 3 hours with CD8+ T cell-enriched spleen cells from C57Bl/6 mice (n=3 scramble peptide and n=3 peptide 551-574, 50 μM). Cytolysis was evaluated by intracellular accumulation of propidium iodide (PI). Cells were analysed by flow cytometry and the % of cytolysis was calculated by expressing the number of dead (PI+) cells among the target (DIO+) cells. Intracellular MMP-2/9 (gelatinase) activity was measured by flow cytometry in 7-day bone-marrow derived macrophages from C57Bl/6 mice (n=3 scramble peptide and n=3 peptide 551-574, 50 μM) three hours after the incorporation of OregonGreen® gelatine (MFI). T-cell proliferation was performed using either human peripheral blood mononuclear cells of spleen cells from C57Bl/6 (CD31^+/+) and CD31^−/− mice (Charles River France) as previously described (Caligiuri et al. 2005 Arterioscler Thromb Vasc Biol 25:1659-1664). Briefly, cells were plated in triplicates at 0.2×10^6 cells/well in a U bottom 96-well plate in complete medium (RPMI 1640, 1% pyruvate, 1% glutamine, 1% penicillin-streptomicyne-fungizone, 10% decomplemented fetal calf serum, all from Invitrogen) containing 1 μg/ml anti-mouse CD3/CD28 or 5 μg/ml anti-human CD3 antibodies (BD) as appropriate. CD31 (551-574) and scramble peptide at 25, 50 and 100 μM final concentration were deposited in the wells just before cell plating. Plated cells were cultured for 72 hours in 5% CO2 at 37° C. (^3H) thymidine (0.5 μCi/well) was added for the last 16 hours and proliferation evaluated using a Tomtec harvester and analysis on a Wallac micro beta counter. Data are expressed as mean±SEM of cpm in triplicates.

[4] = test system: apolipoprotein E^−/− mice; test: Angiotensin II infusion into aged apolipoprotein E-/- mice: atherosclerotic lesion size and aneurysm formation; assay type: in vivo, mouse
Protocol: Male 28-week old apolipoprotein E^−/− mice (n=8-10 mice/group) from our breeding facility were maintained on a regular chow diet and kept under standard conditions. Acceleration of atherosclerosis and aneurysm formation was induced by subcutaneous angiotensin II (Sigma, #A9525) infusion (1 mg/kg/d) for 28 days using osmotic minipumps (Alzet, #2004) as previously described (Daugherty et al. J Clin Invest 105:1605-1612). All experiments were approved by our institutional Ethical committee. Atherosclerotic lesion size was measured as previously described (Caligiuri et al. 2005 Arterioscler Thromb Vasc Biol 25:1659-1664). These experiments were repeated twice with similar results.

CSCC[C@H](NC(=O)[C@H](CO)NC(=O)[C@@H](N)CO)C(=O)N[C@@H](CCCNC(=N)N)C(=O)N[C@H](C(=O)N[C@@H](CO)C(=O)N1CCC[C@H]1C(=O)N[C@@H](CCCNC(=N)N)C(=O)N[C@@H](CO)C(=O)N[C@@H](CO)C(=O)N[C@H](C(=O)N[C@@H](CC(C)C)C(=O)N[C@@H](C)C(=O)N[C@H](C(=O)N[C@@H](CCCNC(=N)N)C(=O)N[C@H](C(=O)N[C@@H](Cc1ccccc1)C(=O)N[C@@H](CC(C)C)C(=O)N[C@@H](C)C(=O)N1CCC[C@H]1C(=O)N[C@@H](Cc1c[nH]c2ccccc12)C(=O)N[C@@H](CCCCN)C(=O)N[C@@H](CCCCN)C(=O)O)C(C)C)C(C)C)[C@@H](C)O)[C@@H](C)O [peptide 551-574] (H-SSMRTSPRSSTLAVRVFLAPWKK-OH)
inhibition of TCR-induced calcium mobilization [1]: as an efficient immunoregulatory strategy as it is the co-ligation of CD3 and CD28 with the distal portion of CD31
dose at which suppression of CD69 expression was observed [2]: 100 µg/mL
proliferation of CD31+/+ spleen cells in response to TCR stimulation [3]: inhibits in a dose-dependent manner
proliferation of CD31+/+ spleen cells in response to TCR stimulation ([3]; listed as mouse CD31 peptide 551-574): dose-dependent inhibition
formation of atherothrombotic abdominal aortic aneurysms (AAA) ([4]; daily subcutaneous administration of 50 μM): prevented
acceleration of plaque growth in the aortic root ([4]; daily subcutaneous administration of 50 μM, 28 days angiotensin II): prevented
mice with abdominal aortic aneurysm (AAA) present ([4]; peptide-treated mice, both experiments (Exp #1, Exp #2), controls 8/10 and 6/8): 1/8
